Measured values published in patent publication US6365610B1, “Ozonide compounds with inhibitory activity for urokinase production and angiogenesis” (Taiho Pharmaceutical Company Ltd., priority 1998, dated 2002).

Columns and labels:
[1] = system: fertilized egg chorioallantonic membrane (CAM); assay: Angiogenesis inhibition test, fertilized egg chorioallantonic membrane (CAM) method; format: in vivo, hen; conditions: scored points over all eggs
Protocol: This experiment was conducted substantially according to the fertilized egg chorioallantonic membrane (abbreviated as CAM) method described in ADVANCES IN CANCER RESEARCH, vol. 43, 175-203. The fertilized hen's eggs (Plymouth Rock breed×white leghorn breed) used were purchased from Gotoh Brooder (Gifu Prefecture) and incubated in an incubator (product of Tokyo Rikagaku Kikai Co., Ltd.) at a humidity of 70% and 37° C.
The air chamber of each egg was located by illuminating the egg and the egg shell was injured with a rotary file at two locations, i.e., an upper portion of the air chamber and a side portion of the egg on day 3, taking the day when the incubation was started as day 0. About 3 ml of the albumen was aspirated through the side hole with a syringe for removal, and the air was removed from the upper portion with a dropper. With the side hole sealed with OpSite (product of Smith and Nephew Ltd.), the air chamber upper portion was injured in the form of a 1 cm square, the egg shell and the egg membrane were removed from the square area, and the opening was sealed with OpSite. The seal was removed from the opening on day 5 to form a window, which was sealed with Tegaderm (product of 3M Health Care Ltd.). A disk is made from 20 μl of 1% gelatin with drying, 20 μl of 0.5% aqueous methyl cellulose solution containing an active component of the invention was applied to the disk to form a superposed layer, and the resulting disk was dried in a clean bench. The Tegaderm seal was removed, the disk was placed at rest on the CAM, and the window was sealed again. The shell was removed from an upper portion of the egg on day 7, and 1 ml of 20% Intralipos (product of Green Cross Co., Ltd.) was injected into the egg under the CAM. The CAM was observed under a surgical microscope and photographed at a magnification of ×4 to ×8.
The effect to inhibit angiogenesis was determined substantially according to the method described in Cancer Lett., 48(2), 157-62(1989). More specifically, a vessel-free region, when found over a distance of at least 2 mm around the methyl cellulose layer, was interpreted as indicating angiogenesis inhibitory activity (+), weak inhibitory activity of less than 2 mm as indicating quasi-positive (±), and no vessel-free region within 2 mm as indicating negative (−). At least six fertilized eggs were used for testing. The angiogenesis inhibition ratio was determined by evaluating (+) as 1 point, (±) as 0.5 point and (−) as 0 point, and calculating the ratio of the points each compound scored for all the eggs used.

[2] = system: urokinase; assay: Urokinase production inhibition test (HT-1080 culture supernatant urokinase activity); format: cell-based, Human; conditions: HT-1080 cells
Protocol: This test was conducted substantially according to the method described in Biochem. Biophys. Res. Commun., 142(1), 147-54(1987) as will be described in detail below.
Human fibrosarcoma cells HT-1080 were purchased from American Type Culture Collection (product of Rockville). HT-1080 cells were cultured at 37° C. in a 5% CO2 incubator in RPMI-1640 medium (product of Nissui Seiyaku Co., Ltd.) containing 10% (v/v) of […] bovine fetal serum (product of ATLANTA Biological). The cells were suspended in 0.2% trypsin 2 mM EDTA solution for use in the experiment.
The suspension of HT-1080 cells as adjusted to 1×10^5 cells/ml was placed onto a 96-well flat-bottomed incubation plate dividedly in 200 μl quantities (2×10^4 cells/well) and incubated at 37° C. for 4 hours. The supernatant was thereafter removed and replaced with the same amount of serum-free medium [hereinafter referred to as “serum(−)”], followed by incubation for 20 hours. Subsequently, serum(−) was replaced with 199 μl of serum-containing medium [hereinafter referred to as “serum(+)”], and 1 μl of a sample solution containing an active component of the invention and prepared by dissolving the component in dimethyl sulfoxide (DMSO) was added to serum(+) in the incubation plate, followed by further incubation at 37° C. for 24 hours. The resulting supernatant was removed under suction, serum(−) was added in 200 μl quantities, followed by incubation again for 24 hours, and the supernatant of the culture was collected.
To determine the conditions for measuring urokinase activity in the supernatant, the reaction time and the concentration of a synthetic substrate were investigated using recombinant human urokinase (product of CHROMOGENIX AB) and VLKpA (valylleucyllysyl p-nitroamide, product of Sigma Chemical CO.) serving as the […] at a constant concentration (2.8 μg/ml) of plasminogen. When the culture supernatant of HT-1080 cells was checked for urokinase activity preliminarily, the activity was about 0.02 IU/μl. An urokinase solution with activity of 0.02 IU/μl was reacted with the synthetic substrate of varying concentrations.
A 85 μl portion of the culture supernatant and 15 μl of substrate reaction mixture [427 mM Tris-HCl (pH 8.0), 27 mM EDTA (pH 8.0), 1.5 mM VLKpA, 125 μg/ml plasminogen (product of CHROMOGENIX AB] were mixed together in a 96-well incubation plate and reacted at 37° C. for 30 minutes, and the reaction mixture was checked for absorbance at 405 nm using an immunoreader. The urokinase production inhibition ratio was calculated from the following equation.
Inhibition ratio (%)=(1−T/C)×100
wherein T is the average absorbance of a group given the sample, and C is the average absorbance of a control group.

[3] = system: Lewis lung cancer strain (LLC); format: in vivo
Protocol: The test animals used were 7-week-old female C57BL/6 mice (Nippon Charles River) weighing 17 to 20 g. A subcutaneous tumor (1.0×10^5 cells) of Lewis lung cancer strain (LLC) was transplanted in the mice, and a suspension of a test compound in an aqueous solution of 3% ethanol and 5% gum arabic was given on day 3 and thereafter. The test compound used was compound 6, which was intraperitoneally administered at a dose of 15 mg/kg every other day. On the other hand, 100 μl of 3% ethanol-5% gum arabic aqueous solution was intraperitoneally given to a control group. The mice were checked for body weight and the major and minor diameters of the primary tumor every other day, and an estimated tumor volume (V) was determined by calculating (minor diameter)^2×(major diameter)÷2. The tumor growth inhibition ratio (%) was calculated from the estimated tumor volume of day 24 after the transplantation using the following equation.
Tumor growth inhibition ratio (%)=(1−Tv/Cv)×100
wherein Tv is the tumor volume (mm^3) of the group given the test compound, and Cv is the tumor volume (mm^3) of the control group.
The tumor was excised from each mouse, fixed with acetone, and checked for the number of lesions metastasized to the lungs to calculate the lung metastasis inhibition ratio (%) from the following equation.
Lung metastasis inhibition ratio (%)=(1−T/C)×100
wherein T is the number of metastatic nodules in the group given the test compound, and C is the number of metastatic nodules in the control group.

[4] = 15 mg/kg intraperitoneally every other day, LLC-bearing mice

Compound	melting point [°C]	angiogenesis inhibition ratio (%) ([1]; dosage 40 μg/egg)	urokinase inhibition ratio (%) ([2]; concentration 3.13 μg/ml)	also measured
CC1c2ccccc2C2(c3ccccc3)OOC1O2 (stereo not drawn) [Compound 9, 4,5-dihydro-5-methyl-1-phenyl-1,4-epoxy-1H-2,3-benzodioxepin]	127 to 128			
COc1ccc(C23OOC(c4ccccc4)(O2)C(C)c2ccccc23)cc1 (stereo not drawn) [Compound 3, 4,5-dihydro-1-p-anisyl-5-methyl-4-phenyl-1,4-epoxy-1H-2,3-benzodioxepin]	135 to 136	63	93.8	urokinase inhibition ratio (%) ([2]; concentration 6.25 μg/ml): 94.4%
c1ccc(C23OOC(O2)c2cccc4cccc3c24)cc1 (stereo not drawn) [Compound 6, 1-phenyl-1,4-epoxy-1H,4H-naphtho[1,8-de][1,2]dioxepin]		100		urokinase inhibition ratio (%) ([2]; concentration 50.0 μg/ml): 90.1%; tumor growth inhibition ratio ([3]; 15 mg/kg intraperitoneally every other day from day 3, estimated tumor volume of day 24, subcutaneous LLC in mice): 59.2%; lung metastasis inhibition ratio ([3]; 15 mg/kg intraperitoneally every other day from day 3, number of metastatic nodules in lungs, LLC in mice): 75.8%; death in the mice [3, 4]: no death; reduction in body weight [3, 4]: little or no reduction in body weight
c1ccc(C23Cc4ccccc4C(c4ccccc4)(OO2)O3)cc1 (stereo not drawn) [Compound 11, 4,5-dihydro-1,4-diphenyl-1,4-epoxy-1H-2,3-benzodioxepin]	119		91.4	
c1ccc(C2c3ccccc3C3(c4ccccc4)OOC2(c2ccccc2)O3)cc1 (stereo not drawn) [Compound 10, 4,5-dihydro-1,4,5-triphenyl-1,4-epoxy-1H-2,3-benzodioxepin]	171 to 173		94.1	
CC12OOC(c3ccccc3)(O1)c1ccccc1C2c1ccccc1 (stereo not drawn) [Compound 1, 4,5-dihydro-1,5-diphenyl-4-methyl-1,4-epoxy-1H-2,3-benzodioxepin]	178 to 180	75	90.5	angiogenesis inhibition ratio (%) ([1]; dosage 10 μg/egg): 67%; urokinase inhibition ratio (%) ([2]; concentration 1.56 μg/ml): 90.0%
c1ccc(C2c3ccccc3C3OC2(c2ccccc2)ON3c2ccccc2)cc1 (stereo not drawn) [Compound 8, 1,2,4,5-tetrahydro-2,4,5-triphenyl-1,4-epoxy-3,2-benzoxazepin]	155 to 156	56		urokinase inhibition ratio (%) ([2]; concentration 25.0 μg/ml): 82.2%; urokinase inhibition ratio (%) ([2]; concentration 50.0 μg/ml): 93.4%
Cc1ccc(C23OOC(c4ccccc4)(O2)C(C)c2ccccc23)cc1 (stereo not drawn) [Compound 2, 4,5-dihydro-5-methyl-4-phenyl-1-p-tolyl-1,4-epoxy-1H-2,3-benzodioxepin]	139 to 141			urokinase inhibition ratio (%) ([2]; concentration 12.5 μg/ml): 88.3%
CC(C)C1c2ccccc2C2(c3ccccc3)OOC1(c1ccccc1)O2 (stereo not drawn) [Compound 4, 4,5-dihydro-1,4-diphenyl-5-isopropyl-1,4-epoxy-1H-2,3-benzodioxepin]	130 to 132			
